Data published in patent US12447153B2, “HER2 mutation inhibitors” (Array BioPharma Inc., priority 2021, dated 2025).
pIC50: −log10 of the molar value.

Assays:
[1] = target: EGFR wild type (EGFR WT) (Homo sapiens (Human), UniProt P00533); test: Cellular Phosphorylation Assay, Assay 5 (EGF-stimulated EGFR phosphorylation, NIH 3T3 cells); type: cell-based
Protocol: (§1) NIH 3T3 cells were engineered to express ErbB2 with Exon 20 YVMA insertion (HER2-YVMA (SEQ ID NO: 2); Assay 4) or EGFR wild type (EGFR WT; Assay 5) with constructs obtained from GenScript and grown in DMEM supplemented with 10% fetal bovine serum and 15 μg/ml blasticidin. […] Serially diluted compounds were added to the plates for 1 hour at 37° C./5% CO2. EGFR WT cells were stimulated with 100 ng/ml rEGF for an additional 10 minutes at 37° C./5% CO2.
(§2) After compound incubation, medium was removed from the cells, which were then fixed in 3.7% formaldehyde in PBS at room temperature for 20 minutes. Following a wash with PBS, cells were permeabilized with 100% methanol at room temperature for 10 minutes. Cells were then washed with PBS/0.05% Tween-20 and blocked with Odyssey blocking buffer (LI-COR Biosciences) for at least 1 hour at room temperature. Antibodies to phosphorylated ErbB2 (Y1196, Cell Signaling #6942) or phosphorylated EGFR (Y1068, Cell Signaling #3777) and GAPDH (Millipore #MAB374) were added to the cells in blocking buffer containing 0.05% azide and incubated overnight at 4° C. After washing with PBS/0.05% Tween-20, the cells were incubated with fluorescently labeled secondary anti-rabbit antibody (LiCOR, IRDye 800CW #926-32211) and anti-mouse antibody (Molecular Probes, Alexa Fluor 680 #A21058) for 1 hour at room temperature in the dark. Cells were then washed and analyzed for fluorescence at both wavelengths using the Odyssey Infrared Imaging System (LI-COR Biosciences). Phosphorylated ErbB2 and EGFR signal was normalized to GAPDH signal to generate curves and calculate IC50 values.

[2] = target: EGFR (Homo sapiens (Human), UniProt P00533); test: ErbB Enzyme Assay (HTRF KinEASE-TK), Assay 3; type: biochemical
Protocol: The kinases were incubated with 250 nM TK-substrate biotin (CisBio, part of cat #62TKOPEC) at 1 mM ATP along with test compounds in a buffer consisting of 25 mM HEPES, pH 7.4, 10 mM MgCl2, 0.01% Triton X-100, and 2% DMSO in a volume of 8 μL. […] After 30-minute incubation at 22° C., the reaction was quenched by adding 8 μL of quench solution containing 62.5 nM Sa-XL665 and 0.25×TK-Ab-Cryptate in HTRF detection buffer (all from CisBio, part of cat #62TKOPEC). […] A 4-parameter logistic curve was fit to the POC values as a function of the concentration of compound, and the IC50 value was the point where the best-fit curve crossed 50 POC.

[3] = target: ErbB2 with Exon 20 YVMA insertion (HER2-YVMA) (Homo sapiens (Human), UniProt P04626, INS775YVMA); test: Cellular Phosphorylation Assay, Assay 4 (constitutive ErbB2 phosphorylation, NIH 3T3 cells); type: cell-based
Protocol: as §1, §2

[4] = target: ErbB2 WT (Homo sapiens (Human), UniProt P04626); test: ErbB Enzyme Assay (HTRF KinEASE-TK), Assay 2; type: biochemical
Protocol: The kinases were incubated with 250 nM TK-substrate biotin (CisBio, part of cat #62TKOPEC) at 1 mM ATP along with test compounds in a buffer consisting of 25 mM HEPES, pH 7.4, 10 mM MgCl2, 0.01% Triton X-100, and 2% DMSO in a volume of 8 μL. […] After 30-minute incubation at 22° C., the reaction was quenched by adding 8 μL of quench solution containing 62.5 nM Sa-XL665 and 0.25×TK-Ab-Cryptate in HTRF detection buffer (all from CisBio, part of cat #62TKOPEC).

[5] = EGF-stimulated EGFR WT phosphorylation
[6] = cellular EGFR WT phosphorylation, EGF-stimulated
[7] = cellular ErbB2 YVMA phosphorylation

Sequence of ErbB2 WT (P04626 23-1255): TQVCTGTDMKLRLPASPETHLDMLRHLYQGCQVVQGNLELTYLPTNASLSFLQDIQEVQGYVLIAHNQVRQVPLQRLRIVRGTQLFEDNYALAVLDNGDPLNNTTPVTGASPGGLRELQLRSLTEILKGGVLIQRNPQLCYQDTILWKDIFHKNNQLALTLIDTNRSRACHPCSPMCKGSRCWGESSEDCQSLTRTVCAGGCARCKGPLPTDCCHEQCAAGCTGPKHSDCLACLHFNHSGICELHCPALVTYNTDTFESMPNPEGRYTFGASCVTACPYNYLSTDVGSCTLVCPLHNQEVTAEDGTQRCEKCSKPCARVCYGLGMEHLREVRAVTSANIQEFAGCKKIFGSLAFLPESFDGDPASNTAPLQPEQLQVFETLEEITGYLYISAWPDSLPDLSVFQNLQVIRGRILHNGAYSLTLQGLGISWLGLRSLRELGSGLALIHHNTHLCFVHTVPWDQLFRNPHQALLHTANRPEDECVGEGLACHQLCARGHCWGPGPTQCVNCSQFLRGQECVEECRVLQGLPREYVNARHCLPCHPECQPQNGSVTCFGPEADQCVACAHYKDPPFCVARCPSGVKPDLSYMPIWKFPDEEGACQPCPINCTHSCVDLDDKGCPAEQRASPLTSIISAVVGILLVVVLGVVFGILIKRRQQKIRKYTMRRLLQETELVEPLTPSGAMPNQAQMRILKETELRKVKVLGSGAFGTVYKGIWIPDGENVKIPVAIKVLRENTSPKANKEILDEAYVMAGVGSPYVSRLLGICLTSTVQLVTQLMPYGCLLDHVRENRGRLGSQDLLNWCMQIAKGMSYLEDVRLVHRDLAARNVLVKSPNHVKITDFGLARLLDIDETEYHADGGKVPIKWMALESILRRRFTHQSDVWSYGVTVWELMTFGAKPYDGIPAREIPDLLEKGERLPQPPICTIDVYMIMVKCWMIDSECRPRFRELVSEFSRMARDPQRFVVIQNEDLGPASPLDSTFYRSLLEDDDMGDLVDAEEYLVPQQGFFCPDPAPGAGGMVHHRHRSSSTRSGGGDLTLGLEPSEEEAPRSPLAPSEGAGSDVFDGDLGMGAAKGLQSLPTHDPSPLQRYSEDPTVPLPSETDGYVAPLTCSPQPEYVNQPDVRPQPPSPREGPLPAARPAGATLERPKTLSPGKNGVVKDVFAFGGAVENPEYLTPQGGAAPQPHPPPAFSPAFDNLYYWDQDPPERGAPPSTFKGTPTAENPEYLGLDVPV
Sequence of EGFR wild type (EGFR WT) (P00533 25-1210): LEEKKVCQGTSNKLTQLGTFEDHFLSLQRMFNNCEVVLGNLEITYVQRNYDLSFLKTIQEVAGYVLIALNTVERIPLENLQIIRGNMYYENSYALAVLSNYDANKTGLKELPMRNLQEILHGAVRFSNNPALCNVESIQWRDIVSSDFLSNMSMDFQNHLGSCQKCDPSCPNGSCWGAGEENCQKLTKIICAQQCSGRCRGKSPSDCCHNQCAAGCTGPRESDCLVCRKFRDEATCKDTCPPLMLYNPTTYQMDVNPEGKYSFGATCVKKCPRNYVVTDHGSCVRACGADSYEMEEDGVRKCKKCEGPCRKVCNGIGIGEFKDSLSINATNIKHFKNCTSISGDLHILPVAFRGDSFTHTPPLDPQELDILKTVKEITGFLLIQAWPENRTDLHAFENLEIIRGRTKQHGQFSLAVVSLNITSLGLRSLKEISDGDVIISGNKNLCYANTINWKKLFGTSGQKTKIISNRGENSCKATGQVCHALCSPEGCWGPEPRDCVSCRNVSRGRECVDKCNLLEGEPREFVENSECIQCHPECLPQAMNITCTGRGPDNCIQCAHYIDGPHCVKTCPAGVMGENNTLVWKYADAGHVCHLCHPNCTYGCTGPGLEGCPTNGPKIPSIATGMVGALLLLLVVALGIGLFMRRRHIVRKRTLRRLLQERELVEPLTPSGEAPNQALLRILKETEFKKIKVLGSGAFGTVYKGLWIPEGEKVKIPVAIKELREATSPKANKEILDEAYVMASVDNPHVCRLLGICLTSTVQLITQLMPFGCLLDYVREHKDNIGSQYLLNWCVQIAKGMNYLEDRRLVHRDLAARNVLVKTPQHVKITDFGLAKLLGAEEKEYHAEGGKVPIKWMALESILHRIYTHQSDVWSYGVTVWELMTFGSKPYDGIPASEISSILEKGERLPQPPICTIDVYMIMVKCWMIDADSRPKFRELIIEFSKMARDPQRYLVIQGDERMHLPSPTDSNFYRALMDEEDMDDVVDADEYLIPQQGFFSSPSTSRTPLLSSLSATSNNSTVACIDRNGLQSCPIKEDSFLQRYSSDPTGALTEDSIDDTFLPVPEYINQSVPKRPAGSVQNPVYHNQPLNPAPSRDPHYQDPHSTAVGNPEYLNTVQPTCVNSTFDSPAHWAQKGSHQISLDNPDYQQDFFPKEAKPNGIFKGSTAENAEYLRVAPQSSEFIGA
Sequence of EGFR (P00533 25-1210): as above
Sequence of ErbB2 with Exon 20 YVMA insertion (HER2-YVMA) (P04626 other isoform, or with tags, fused parts or gaps ins YVMA behind 775): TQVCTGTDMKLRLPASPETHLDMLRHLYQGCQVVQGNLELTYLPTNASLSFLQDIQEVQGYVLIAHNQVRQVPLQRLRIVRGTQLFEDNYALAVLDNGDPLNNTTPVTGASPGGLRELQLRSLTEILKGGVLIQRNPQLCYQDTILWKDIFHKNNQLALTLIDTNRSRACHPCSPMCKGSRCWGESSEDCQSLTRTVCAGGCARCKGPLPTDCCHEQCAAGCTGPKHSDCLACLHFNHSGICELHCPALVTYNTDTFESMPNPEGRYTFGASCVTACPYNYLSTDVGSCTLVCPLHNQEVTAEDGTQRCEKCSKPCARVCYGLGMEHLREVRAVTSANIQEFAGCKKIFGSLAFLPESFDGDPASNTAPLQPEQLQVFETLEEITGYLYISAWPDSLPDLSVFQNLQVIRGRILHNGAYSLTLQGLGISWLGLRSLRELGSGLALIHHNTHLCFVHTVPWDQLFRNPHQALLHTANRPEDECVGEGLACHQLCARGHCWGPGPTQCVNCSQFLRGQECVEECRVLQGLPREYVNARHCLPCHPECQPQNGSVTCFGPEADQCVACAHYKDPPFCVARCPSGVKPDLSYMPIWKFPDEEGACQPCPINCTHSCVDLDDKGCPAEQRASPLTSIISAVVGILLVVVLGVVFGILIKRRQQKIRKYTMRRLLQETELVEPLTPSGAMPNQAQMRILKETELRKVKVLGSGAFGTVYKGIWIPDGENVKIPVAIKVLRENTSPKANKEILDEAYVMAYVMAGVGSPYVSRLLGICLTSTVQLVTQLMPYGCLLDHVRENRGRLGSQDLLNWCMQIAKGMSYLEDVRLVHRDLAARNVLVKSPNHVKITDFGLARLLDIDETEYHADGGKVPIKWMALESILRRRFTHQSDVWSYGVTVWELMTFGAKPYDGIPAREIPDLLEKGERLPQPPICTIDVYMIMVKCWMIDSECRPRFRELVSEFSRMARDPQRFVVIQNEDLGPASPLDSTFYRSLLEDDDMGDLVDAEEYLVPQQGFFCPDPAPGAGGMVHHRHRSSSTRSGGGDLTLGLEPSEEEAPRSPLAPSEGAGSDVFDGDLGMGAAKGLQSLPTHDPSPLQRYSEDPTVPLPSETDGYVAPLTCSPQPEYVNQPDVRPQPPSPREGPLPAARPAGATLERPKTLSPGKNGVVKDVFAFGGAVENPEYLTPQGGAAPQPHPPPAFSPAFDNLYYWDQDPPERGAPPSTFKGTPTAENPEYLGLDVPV

Row | Structure (SMILES) | pIC50 [1, 5] | pIC50 ([2]; EGFR enzyme) | pIC50 ([3]; ErbB2 YVMA phosphorylation) | pIC50 ([4]; ErbB2 WT enzyme) | pIC50 [1, 6] | pIC50 ([2]; EGFR enzyme assay) | pIC50 [3, 7] | pIC50 ([4]; ErbB2 WT enzyme assay)
1 | C=CC(=O)N1[C@@H]2CC[C@H]1C[C@@H](c1ccc3ncnc(Nc4cc(C)c(Oc5ccn6ncnc6c5)cc4F)c3n1)C2 [Example 206, 1-((1R,3r,5S)-3-(4-((4-([1,2,4]triazolo[1,5-a]pyridin-7-yloxy)-2-fluoro-5-methylphenyl)amino)pyrido[3,2-d]pyrimidin-6-yl)-8-azabicyclo[3.2.1]octan-8-yl)prop-2-en-1-one] | ≤ 5.30 | 5.32 | 6.94 | 6.82 |  |  |  | 
2 | C=CC(=O)N1C[C@H]2CC[C@@H]1C[C@H]2c1ccc2ncnc(Nc3cc(C)c(Oc4cnc5c(c4)ncn5C)cc3F)c2n1 [Example 421] |  |  |  |  | ≤ 5.30 | ≤ 5.00 | 7.03 | 6.66
3 | C=CC(=O)N1[C@H](C)CN(c2ccc3ncnc(Nc4ccc(Oc5ccc6c(c5)ncn6C)c(C)c4F)c3n2)C[C@H]1C [Example 255] |  |  |  |  | ≤ 5.30 | ≤ 5.00 | 6.77 | 6.10
4 | C=CC(=O)N1[C@@H]2CCC[C@H]1[C@@H](c1ccc3ncnc(Nc4cc(C)c(Oc5ccn6ncnc6c5)cc4F)c3n1)C2 [Example 414] |  |  |  |  | ≤ 5.30 | 6.06 | 7.24 | 7.52
5 | C=CC(=O)N1CCN(c2ccc3ncnc(Nc4ccc(Oc5ccn6ncnc6c5)c(C(F)F)c4)c3n2)CC1(C)C [Example 451] |  |  |  |  | 5.48 | 5.20 | 7.31 | 6.97
6 | C=CC(=O)N1CCCC(c2ccc3ncnc(Nc4ccc(Oc5ccn6ncnc6c5)c(Cl)c4F)c3n2)CC1 (stereo not drawn) [Example 399] |  |  |  |  | 6.34 | 6.75 | 7.72 | 8.72
7 | C=CC(=O)N1CCCC(c2ccc3ncnc(Nc4ccc(Oc5ccn6ncnc6c5)c(C)c4F)c3n2)CC1 (stereo not drawn) [Example 189, 1-(4-(4-((4-([1,2,4]triazolo[1,5-a]pyridin-7-yloxy)-2-fluoro-3-methylphenyl)amino)pyrido[3,2-d]pyrimidin-6-yl)azepan-1-yl)prop-2-en-1-one] | 5.75 | 5.89 | 7.39 | 7.95 |  |  |  | 
8 | C=CC(=O)N1C[C@H]2C[C@@H]1CN(c1ccc3ncnc(Nc4cc(C)c(Oc5ccc6c(c5)ncn6C)cc4F)c3n1)C2 [Example 119, 1-((1S,5R)-3-(4-((2-fluoro-5-methyl-4-((1-methyl-1H-benzo[d]imidazol-5-yl)oxy)phenyl)amino)pyrido[3,2-d]pyrimidin-6-yl)-3,6-diazabicyclo[3.2.1]octan-6-yl)prop-2-en-1-one] | ≤ 5.30 | ≤ 5.00 | 8.03 | 7.22 |  |  |  | 
9 | Cc1c(Oc2ccn3ncnc3c2)ccc(Nc2ncnc3ccc(N4C[C@@H]5CCN(C(=O)C67CC6C7)[C@@H]5C4)nc23)c1F (stereo partly drawn) [Example 27, ((3aS,6aS)-5-(4-((4-([1,2,4]triazolo[1,5-a]pyridin-7-yloxy)-2-fluoro-3-methylphenyl)amino)pyrido[3,2-d]pyrimidin-6-yl)hexahydropyrrolo[3,4-b]pyrrol-1(2H)-yl)(bicyclo[1.1.0]butan-1-yl)methanone] | ≤ 5.30 | ≤ 5.00 | 6.42 | 6.31 |  |  |  | 
10 | C=CC(=O)N1C2CC1CN(c1ccc3ncnc(Nc4ccc(Oc5cnc6c(c5)ncn6C)c(C)c4F)c3n1)C2 [Example 438] |  |  |  |  | ≤ 5.30 | ≤ 5.00 | 8.01 | 6.45

Second part, the compound after the results:

Row | pIC50 [1, 5] | pIC50 ([2]; EGFR enzyme) | pIC50 ([3]; ErbB2 YVMA phosphorylation) | pIC50 ([4]; ErbB2 WT enzyme) | pIC50 [1, 6] | pIC50 ([2]; EGFR enzyme assay) | pIC50 [3, 7] | pIC50 ([4]; ErbB2 WT enzyme assay) | Structure (SMILES)
11 | ≤ 5.30 | 5.79 | 7.17 | 7.97 |  |  |  |  | C=CC(=O)N1CCC[C@@H](c2ccc3ncnc(Nc4ccc(Oc5ccn6ncnc6c5)c(C)c4F)c3n2)CC1 (single isomer, unassigned) [Example 210]
12 | ≤ 5.30 | ≤ 5.00 | 6.56 | 7.00 |  |  |  |  | C=C(F)C(=O)N1CCN(c2ccc3ncnc(Nc4ccc(Oc5ccn6ncnc6c5)c(C)c4F)c3n2)CC1(C)C [Example 187, 1-(4-(4-((4-([1,2,4]triazolo[1,5-a]pyridin-7-yloxy)-2-fluoro-3-methylphenyl)amino)pyrido[3,2-d]pyrimidin-6-yl)-2,2-dimethylpiperazin-1-yl)-2-fluoroprop-2-en-1-one]
13 | ≤ 5.30 | ≤ 5.00 | 6.50 | 6.89 |  |  |  |  | C=C(F)C(=O)N1CCN(c2ccc3ncnc(Nc4ccc(Oc5ccn6ncnc6c5)c(C)c4F)c3n2)CC1 [Example 185, 1-(4-(4-((4-([1,2,4]triazolo[1,5-a]pyridin-7-yloxy)-2-fluoro-3-methylphenyl)amino)pyrido[3,2-d]pyrimidin-6-yl)piperazin-1-yl)-2-fluoroprop-2-en-1-one]
14 |  |  |  |  | 6.94 | 6.76 | 8.29 | 8.03 | C=CC(=O)N1CCN(c2ccc3ncnc(Nc4cc(Cl)c(Oc5ccn6ncnc6c5)cc4F)c3n2)C[C@H]1COC [Example 345]
15 |  |  |  |  | ≤ 5.30 | 5.95 | 7.31 | 8.01 | C=CC(=O)N1C[C@H]2CC[C@@H]1[C@H](c1ccc3ncnc(Nc4ccc(Oc5ccn6ncnc6c5)c(C)c4F)c3n1)C2 [Example 397]
16 |  |  |  |  | 5.84 | 6.22 | 7.45 | 7.35 | C=CC(=O)N1C[C@H]2CC[C@H](c3ccc4ncnc(Nc5ccc(Oc6ccn7ncnc7c6)c(C)c5F)c4n3)[C@H]2C1 [Example 411]
17 | ≤ 5.30 | ≤ 5.00 | 7.81 | 6.34 |  |  |  |  | C=CC(=O)N1C[C@@H]2C[C@H]1CN(c1ccc3ncnc(Nc4cc(C)c(Oc5ccc6c(c5)ncn6C)cc4F)c3n1)C2 [Example 102, 1-((1R,5S)-3-(4-((2-fluoro-5-methyl-4-((1-methyl-1H-benzo[d]imidazol-5-yl)oxy)phenyl)amino)pyrido[3,2-d]pyrimidin-6-yl)-3,6-diazabicyclo[3.2.1]octan-6-yl)prop-2-en-1-one]
18 |  |  |  |  | ≤ 5.30 | ≤ 5.00 | 7.37 | 6.72 | C=CC(=O)N1CCN(c2ccc3ncnc(Nc4cc(Cl)c(Oc5cnc6c(c5)ncn6C)cc4F)c3n2)C[C@@H]1C1CC1 [Example 440]
19 | 6.06 | 6.26 | 7.45 | 7.93 |  |  |  |  | CC#CC(=O)N1CCN(c2ccc3ncnc(Nc4ccc(Oc5ccn6ncnc6c5)c(Cl)c4F)c3n2)CC12CC2 [Example 181, 1-(7-(4-((4-([1,2,4]triazolo[1,5-a]pyridin-7-yloxy)-3-chloro-2-fluorophenyl)amino)pyrido[3,2-d]pyrimidin-6-yl)-4,7-diazaspiro[2.5]octan-4-yl)but-2-yn-1-one]
20 |  |  |  |  | ≤ 5.30 | 5.35 | 6.94 | 7.38 | C=CC(=O)N1CCCN(c2ccc3ncnc(Nc4cc(C)c(Oc5ccn6ncnc6c5)cc4F)c3n2)CC1(C)C [Example 260]
21 | 6.35 | 5.44 | 7.96 | 7.12 |  |  |  |  | C=CC(=O)N1CCN(c2ccc3ncnc(Nc4ccc(Oc5ccn6ncnc6c5)c(C)c4F)c3n2)C[C@H]1C [Example 89, (R)-1-(4-(4-((4-([1,2,4]triazolo[1,5-a]pyridin-7-yloxy)-2-fluoro-3-methylphenyl)amino)pyrido[3,2-d]pyrimidin-6-yl)-2-methylpiperazin-1-yl)prop-2-en-1-one]
